# Laboratory results taken from patent US11505533B2, “Metabolically stable N-acylaminooxadiazoles useful as antibacterial agents” (MICROBIOTIX, INC., priority 2017, dated 2022).
# pIC50: −log10 of the molar value. Entries after “also recorded” stand apart in the source; their conditions may differ. Where two headings read alike, the source gives them in different places.
# Experiments:
# M. pneumoniae 15531 = format: cell-based; conditions: Mycoplasmoides pneumoniae
# N. gonorrhoeae 49226 = format: cell-based; conditions: Neisseria gonorrhoeae
# MRSA USA 300 (BAA-1717) = format: cell-based; conditions: Staphylococcus aureus
# [1] = Microsomal stability + NADPH; conditions: mouse liver microsomes, 0.5 hr at 37° C.
# [2] = Mouse serum binding, equilibrium dialysis
# [3] = Mammalian cell cytotoxicity
# Mouse serum stability = conditions: 5 μM, 37° C., 4 h
# [4] = tested on: S. aureus ATCC 25923 (MSSA. osteomyelitis isolate); format: cell-based; conditions: Staphylococcus aureus
# [5] = tested on: Legionella pneumophila 33153; assay: microbe, parasite or virus in culture; format: cell-based
# [6] = tested on: E. coli (700, TolC+) efflux pos; format: cell-based; conditions: Escherichia coli
# [7] = Aqueous solubility, nephelometry; conditions: water, kinetic from dmso stock
# [8] = tested on: Moraxella catarrhalis 8176; format: cell-based
# E. coli TolC(−) [9] = assay: TolC(−) MIC (NB); format: cell-based; conditions: Escherichia coli, read-out: TolC(−) MIC (μM)(NB)
# [10] = tested on: Haemophilus influenza 35056; format: cell-based
# MRSA-1094 (MDR) = format: cell-based; conditions: Staphylococcus aureus
# S. pneumoniae 49619 = format: cell-based; conditions: Streptococcus pneumoniae
# E. coli TolC(−) [11] = conditions: MIC in the presence of 10% fetal calf serum versus without
# Caco-2 permeability = format: in vitro ADME; conditions: human, direction not given
# Excerpt: Res., 15(5): 726-733 (1998).
# trans-translation = conditions: dose response assay; Ramadoss et al., PNAS 2013; cited from earlier work
# [12] = Preliminary PK studies in mice; conditions: IV or IP dosing at 10 mg/kg, data not shown
# [13] = Stability in liver microsomes in vitro; conditions: mouse or human liver microsomes in vitro; data not shown
# translation = conditions: specific inhibitor of trans-translation; cited from earlier work
# mammalian systems = conditions: even in the context of prolonged exposure; cited from earlier work
# [14] = tested on: Franciscella tularensis (Schu13); assay: organism not typed; format: cell-based
# Franciscella tularensis = assay: organism not typed; format: cell-based
# [15] = tested on: S. aureus WTBF-19 (MSSA. osteomyelitis isolate); format: cell-based; conditions: Staphylococcus aureus
# MRSA N315 NRS-70 = format: cell-based; conditions: Staphylococcus aureus
# [16] = tested on: S. aureus (ATCC 35556, spec, kan-res); format: cell-based; conditions: Staphylococcus aureus, ATCC35556
# [17] = tested on: S. aureus NRS-77 (spec-res); format: cell-based; conditions: Staphylococcus aureus, NRS77
# [18] = tested on: S. aureus (MRSA-1234547263, Cip-res); format: cell-based; conditions: Staphylococcus aureus
# Brucella suis = assay: microbe, parasite or virus in culture; format: cell-based
# B. anthracis = assay: microbe, parasite or virus in culture; format: cell-based; conditions: Bacillus anthracis
# N. gonorrhoeae = assay: MIC90 determination, clinical isolates; format: cell-based; conditions: Neisseria gonorrhoeae
# Yersinia pestis = assay: microbe, parasite or virus in culture; format: cell-based
# [19] = tested on: N. gonorrhoeae H041 (MDR including AZM and CTX); format: cell-based; conditions: Neisseria gonorrhoeae
# [20] = M. pneumoniae 15531, read-out: MIC
# [21] = N. gonorrhoeae 49226, read-out: MIC
# [22] = MRSA USA 300 (BAA-1717), read-out: MIC
# [23] = S. aureus ATCC 25923 (MSSA), read-out: MIC
# [24] = E. coli (700, TolC+) efflux pos, read-out: MIC
# [25] = Haemophilus influenza 35056, read-out: MIC
# [26] = S. pneumoniae 49619, read-out: MIC
# [27] = MRSA N315 NRS-70, read-out: MIC
# [28] = S. aureus NRS-77 (spec-res), read-out: MIC
compound,measurement,setting,value
O=C(Nc1nnc(-c2ccc(F)cc2)o1)c1ccc(OC2CCCC2)cc1 [compound 4293],MIC,M. pneumoniae 15531; [20],18.4 µg/mL
same,MIC,N. gonorrhoeae 49226; [21],0.09 µg/mL
same,MIC,MRSA USA 300 (BAA-1717); [22],0.29 µg/mL
same,Microsomal Stability + NADPH % degraded,[1],59%
same,fraction unbound,[2],0.001
same,CC50,[3],31.8 µM
same,Serum Stability (% remain),Mouse serum stability,88%
same,MIC,[4]; [23],1.15 µg/mL
same,MIC,[5],0.59 µg/mL
same,MIC,[6]; [24],> 36 µg/mL
same,solubility,[7],3.12 µM
same,MIC,[8]; read-out: MIC,< 0.02 µg/mL
same,MIC,E. coli TolC(−) [9],1.39 µM
same,MIC,[10]; [25],12.2 µg/mL
same,MIC,"MRSA-1094 (MDR); MRSA-1094 (MDR), read-out: MIC",0.72 µg/mL
same,MIC,S. pneumoniae 49619; [26],4.59 µg/mL
O=C(Nc1nnc(-c2ccc(F)cc2)o1)N1Cc2ccccc2C1 [compound 4330],MIC,N. gonorrhoeae 49226; [21],0.16 µg/mL
same,MIC,MRSA USA 300 (BAA-1717); [22],1.01 µg/mL
same,Microsomal Stability + NADPH % degraded,[1],43.5%
same,CC50,[3],> 100 µM
same,MIC,[4]; [23],≥ 32 µg/mL
same,MIC,[6]; [24],> 32 µg/mL
same,solubility,[7],3.13 µM
same,MIC,E. coli TolC(−) [9],6.25 µM
same,MIC,"MRSA-1094 (MDR); MRSA-1094 (MDR), read-out: MIC",2.03 µg/mL
O=C(Nc1nnc(-c2ccc(F)cc2)o1)c1ccc(Oc2cccc(O)c2)cc1 [compound 4304],Microsomal Stability + NADPH % degraded,[1],85%
same,fraction unbound,[2],< 0.01
same,Fold Serum Shift vs. TolC(−),E. coli TolC(−) [11],28.5 fold
same,CC50,[3],> 100 µM
same,solubility,[7],50 µM
same,Papp,Caco-2 permeability,13.7 ×10⁻⁶ cm/s
same,MIC,E. coli TolC(−) [9],3.51 µM
CCN(c1ccccc1)c1ccc(C(=O)Nc2nnc(-c3ccc(F)cc3)o2)cc1 [compound 4285],MIC,MRSA USA 300 (BAA-1717); [22],0.63 µg/mL
same,CC50,[3],59.9 µM
same,MIC,[4]; [23],6.34 µg/mL
same,MIC,[6]; [24],> 40 µg/mL
same,solubility,[7],3.12 µM
same,MIC,E. coli TolC(−) [9],2.48 µM
same,MIC,"MRSA-1094 (MDR); MRSA-1094 (MDR), read-out: MIC",2.52 µg/mL
O=C(Nc1nnc(-c2ccc(F)cc2)o1)c1ccc(Cl)cc1 [KKL-35],pIC50,trans-translation,6.05
same,bioavailability in mice,[12],extremely poor bioavailability; also recorded: undetectable in mouse serum at 6 h
same,stability in the presence of liver microsomes,[13],poor microsomal stability; also recorded: no detectable material after 5 min
same,effect on translation,translation,no effect on translation
same,cytotoxicity,mammalian systems,lack of cytotoxicity
O=C(Nc1nnc(-c2ccc(F)cc2)o1)N1CC=C(C(F)(F)F)CC1 [compound 4347],MIC,N. gonorrhoeae 49226; [21],0.089 µg/mL
same,Microsomal Stability + NADPH % degraded,[1],<30%
same,fraction unbound,[2],< 0.01
same,CC50,[3],> 100 µM
same,Serum Stability (% remain),Mouse serum stability,93%
same,MIC,[4]; [23],> 35 µg/mL
same,MIC,[6]; [24],> 27 µg/mL
same,solubility,[7],3.1 µM
same,Papp,Caco-2 permeability,21.8 ×10⁻⁶ cm/s
same,MIC,E. coli TolC(−) [9],2.48 µM
same,MIC,"MRSA-1094 (MDR); MRSA-1094 (MDR), read-out: MIC",2.23 µg/mL
"O=C(Nc1nnc(-c2ccc(F)cc2)o1)c1ccc(Oc2ccccc2)nc1 [compound 4237, 2-(6-phenoxynicotinamido)-5-(4-fluorophenyl)-1,3,4-oxadiazole]",MIC,M. pneumoniae 15531; [20],18.8 µg/mL
same,MIC,N. gonorrhoeae 49226; [21],0.75 µg/mL
same,MIC,MRSA USA 300 (BAA-1717); [22],2.1 µg/mL
same,Microsomal Stability + NADPH % degraded,[1],9%
same,fraction unbound,[2],0.002
same,MIC,[14],0.75 µg/mL
same,CC50,[3],> 100 µM
same,Serum Stability (% remain),Mouse serum stability,>95%
same,MIC90,Franciscella tularensis,1.51 µg/mL
same,MIC,[15]; MSSA,2.35 µg/mL
same,MIC,[4],2.35 µg/mL
same,MIC,[5],0.87 µg/mL
same,MIC,[6]; [24],> 39 µg/mL
same,MIC,MRSA N315 NRS-70; [27],4.7 µg/mL
same,solubility,[7],6.25 µM
same,MIC,[16],2.35 µg/mL
same,MIC,[8]; read-out: MIC,0.06 µg/mL
same,Papp,Caco-2 permeability,12.7 ×10⁻⁶ cm/s
same,MIC,[17]; [28],2.96 µg/mL
same,MIC,[18]; MRSA,2.35 µg/mL
same,MIC,E. coli TolC(−) [9],1.56 µM
same,MIC,[10]; [25],9.41 µg/mL
same,MIC,MRSA-1094 (MDR); MRSA,2.35 µg/mL
same,MIC,S. pneumoniae 49619; [26],4.7 µg/mL
O=C(Nc1nnc(-c2ccc(F)cc2)o1)c1ccc(OC2CCCCC2)cc1 [compound 4292],MIC,M. pneumoniae 15531; [20],19.1 µg/mL
same,MIC,N. gonorrhoeae 49226; [21],0.1 µg/mL
same,MIC,MRSA USA 300 (BAA-1717); [22],0.3 µg/mL
same,Microsomal Stability + NADPH % degraded,[1],20%
same,fraction unbound,[2],< 0.01
same,CC50,[3],23.7 µM
same,Serum Stability (% remain),Mouse serum stability,82%
same,MIC,"[15]; S. aureus WTBF-19 (MSSA), read-out: MIC",1.19 µg/mL
same,MIC,[4]; [23],1.23 µg/mL
same,MIC,[5],0.61 µg/mL
same,MIC,[6]; [24],> 39 µg/mL
same,MIC,MRSA N315 NRS-70; [27],1.36 µg/mL
same,solubility,[7],6.25 µM
same,MIC,[16],0.95 µg/mL
same,MIC,[8]; read-out: MIC,< 0.02 µg/mL
same,Papp,Caco-2 permeability,1 ×10⁻⁶ cm/s
same,MIC,[17]; [28],1.17 µg/mL
same,MIC,"[18]; S. aureus (MRSA-1234547263, Cip-res), read-out: MIC",0.67 µg/mL
same,MIC,E. coli TolC(−) [9],1.1 µM
same,MIC,[10]; [25],> 39 µg/mL
same,MIC,"MRSA-1094 (MDR); MRSA-1094 (MDR), read-out: MIC",0.75 µg/mL
same,MIC,S. pneumoniae 49619; [26],4.77 µg/mL
CC(C)(C)OC(=O)N1CC(Oc2ccc(C(=O)Nc3nnc(-c4ccc(F)cc4)o3)cc2)C1 [compound 4288],MIC,MRSA USA 300 (BAA-1717); [22],2.01 µg/mL
same,CC50,[3],6.6 µM
same,MIC,[4]; [23],7.16 µg/mL
same,MIC,[6]; [24],> 45 µg/mL
same,solubility,[7],25 µM
same,MIC,E. coli TolC(−) [9],3.51 µM
same,MIC,"MRSA-1094 (MDR); MRSA-1094 (MDR), read-out: MIC",5.68 µg/mL
CC1=CCN(C(=O)Nc2nnc(-c3ccc(F)cc3)o2)CC1 [compound 4366],Microsomal Stability + NADPH % degraded,[1],45%
same,fraction unbound,[2],0.051
same,Fold Serum Shift vs. TolC(−),E. coli TolC(−) [11],4 fold
same,CC50,[3],46 µM
same,Serum Stability (% remain),Mouse serum stability,95%
same,solubility,[7],25 µM
same,Papp,Caco-2 permeability,67.3 ×10⁻⁶ cm/s
same,MIC,E. coli TolC(−) [9],6.25 µM
"O=C(Nc1nnc(-c2ccc(F)cc2)o1)N1CCc2ccccc2C1 [compound 4132, N-[5-(4-fluorophenyl)-1,3,4-oxadiazol-2-yl]-3,4-dihydroisoquinoline-2(1H)-carboxamide]",MIC,Brucella suis,4.23 µg/mL
same,MIC,M. pneumoniae 15531; 15531,> 33.8 µg/mL
same,MIC,N. gonorrhoeae 49226; 49226,0.18 µg/mL
same,MIC,MRSA USA 300 (BAA-1717),1.06 µg/mL
same,Microsomal Stability + NADPH % degraded,[1],27%
same,Fold Serum Shift vs. TolC(−),E. coli TolC(−) [11],12.7 fold
same,MIC,[14],0.13 µg/mL
same,CC50,[3],27.2 µM
same,Serum Stability (% remain),Mouse serum stability,>95%
same,MIC90,Franciscella tularensis,0.13 µg/mL
same,MIC,[15]; MSSA,4.23 µg/mL
same,MIC,[4],6.34 µg/mL
same,MIC,[5],8.46 µg/mL
same,MIC,[6],> 35 µg/mL
same,MIC,MRSA N315 NRS-70,6.34 µg/mL
same,solubility,[7],6.25 µM
same,MIC,[16],4.23 µg/mL
same,MIC,[8],0.034 µg/mL
same,Papp,Caco-2 permeability,65.8 ×10⁻⁶ cm/s
same,MIC,[17],3.17 µg/mL
same,MIC,B. anthracis,4.06 µg/mL
same,MIC,[18]; MRSA,3.17 µg/mL
same,MIC,E. coli TolC(−) [9],7.87 µM
same,MIC,"[10]; Haemophilus, 35056",16.9 µg/mL
same,MIC90,N. gonorrhoeae,0.54 µg/mL
same,MIC,MRSA-1094 (MDR); MRSA,3.17 µg/mL
same,MIC,Yersinia pestis,8.46 µg/mL
same,MIC,[19],0.13 µg/mL
same,MIC,S. pneumoniae 49619; 49619,33.8 µg/mL
